For `CCc1nn2c(-c3ccc(Cl)cc3Cl)cnnc2c1C(CC)CC`, the melting point was 117 to 118 °C. Work on `CO/C=C(/C(=O)OC)c1ccccc1CCl` yielded a melting point of 85 to 88 °C. `c1ccc(OCNc2ccncc2)cc1` gave a melting point of 159 to 160 °C. `CN(Cc1ccccc1)CC1CCSc2[nH]c3ccccc3c21` (centres undefined) showed a melting point of 91 to 93 °C. `O=[N+]([O-])c1cc(NCCO)ccc1NCC(F)(F)F` gave a melting point of 93 to 95 °C. `CS(=O)(=O)OCN1C=NN(c2c(Cl)cc(C(F)(F)F)cc2Cl)C1` gave a melting point of 96 to 97 °C. Work on `CC(C)(C)C(OCc1ccc(Cl)cc1)c1cncnc1` (centres undefined) yielded a melting point of 77 to 78.5 °C. `COc1ccc(C(=O)c2[nH]c(=O)[nH]c2CN(C)C)cc1` gave a melting point of 165 to 167 °C. `CCOC(=O)c1c(Cl)nn(C)c1S(=O)(=O)NC(=O)OC` gave a melting point of 107 to 110 °C. With `CC(C)(C)COc1cccc(C[C@H]2NC(=O)O[C@H]2c2cccc(Cl)c2)c1` (racemic) the melting point was 141 to 142 °C. In the case of `Cn1cnc(-c2ccc(NC(=C3C(=O)Oc4ccccc43)c3ccc(C4(N)CC4)cc3)cc2)c1`, the melting point is reported as 190 to 191 °C. For `CN1CCc2nc3ccc(Cl)cc3c(Cl)c2C1`, the melting point was 88 to 89 °C. `NC(=O)NC[C@@H]1CCCc2cc(S(=O)(=O)c3cccc(F)c3)cc(F)c21` gave a melting point of 194 °C. Work on `Cc1cc2cccc(OS(=O)(=O)C(F)(F)F)c2nc1-c1ccccc1` yielded a melting point of 85 °C. For `O=C1Nc2ccc(Br)cc2/C1=C/c1ccc[nH]1`, the melting point was 267 to 268 °C. `CCCC(c1ccccc1)c1ccc(-c2cnn3c(O)ncnc23)cc1` (centres undefined) showed a melting point of 280 to 285 °C. For `CN(C)CC1CC(c2ccc(Cl)cc2)c2ccccc2O1` (centres undefined), the melting point was 120 to 122 °C. `O=C(CCc1conc1-c1ccc(Cl)cc1)NCc1cccc(C(F)(F)F)c1` gave a melting point of 80 to 81 °C. Work on `CCNC(=O)n1c([Si](C)(C)C)cc2ccccc21` yielded a melting point of 96 to 99 °C. Compound `OCCOCCn1ccc2ncnc(Nc3ccc(Oc4cccc(C(F)(F)F)c4)c(Cl)c3)c21` has a melting point of 130 to 132 °C. Compound `CC(C)c1ccc(CCNc2ncnc3c(F)cccc23)cc1` has a melting point of 170 to 172 °C. `Cc1cccc(-c2[nH]c(C(C)C)nc2-c2ccc(F)c(-c3ccc(OCCN4CCCC4=O)cc3)c2)n1` gave a melting point of 95 °C. Work on `N#CC(=O)c1ccccc1CF` yielded a melting point of 41 °C. For `C=CCONC(=O)COc1cccc2c1c(C(=O)C(N)=O)c(CC)n2Cc1ccccc1`, the melting point was 175 to 177 °C. For `COc1ccc(-c2c(O)c3ccc(Cl)cc3[nH]c2=O)cc1`, the melting point was > 350 °C. `Cc1cccc(-c2ccc3c(c2)CC[C@H]2N(C)C(=O)CC[C@]32C)c1C` gave a melting point of 133 to 140 °C. In the case of `O=C1Nc2ccccc2C12COc1cc3nccnc3cc12` (centres undefined), the melting point is reported as 206 to 207 °C. With `O=c1c2cnc3cc4c(cc3c2sn1CCc1ccccn1)OCO4` the melting point was 200 to 201 °C. `CN(C)CC1CCN(c2nc(N3CCCCC3)c3ncnc(N(C)Cc4cccc5ccccc45)c3n2)CC1` gave a melting point of 150 to 151 °C. Work on `C#CCCCCCC(=O)Nc1nc2nn(C)cc2c2nc(-c3ccco3)nn12` yielded a melting point of 204 to 208 °C. For `Cc1cc(C#N)cc(C(=O)c2c(C(C)C)c(=O)[nH]c(=O)n2CC2(CC(=O)O)CC2)c1`, the melting point was 244 to 245 °C. In the case of `COc1cc2c(cc1O)CCC1C2CCC2(C)C1CCC21OCCO1` (centres undefined), the melting point is reported as 150 to 151 °C. For `CN(C)C(=O)ON=C1n2ccnc2SC1(C)C`, the melting point was 99 to 102 °C. `CCC(C)C(C(=O)NS(C)(=O)=O)c1nc(OC)cc(OC)n1` (centres undefined) gave a melting point of 97 to 101 °C. For `CNC(=O)c1cc(OC)c(-c2ccc(C[C@H](NC(=O)c3c(Cl)cccc3Cl)C(=O)O)cc2)c(OC)c1`, the melting point was 251 to 252 °C. Work on `COc1ccc(N)c(C2OCCO2)c1OC` yielded a melting point of 78 to 80 °C. Compound `Nc1nonc1-c1nc2ccccc2n1CC(=O)c1ccc(Cl)c([N+](=O)[O-])c1` has a melting point of 198 to 200 °C. `COc1cc(C(=O)N(C(C)C)C2CCCCC2)ccc1Cn1c(CN(C)C)nc2ncccc21` gave a melting point of 141 to 142 °C. `O=[N+]([O-])c1cccc(Oc2ccc(Oc3cccc([N+](=O)[O-])c3)cc2)c1` showed a melting point of 158 to 160 °C. Work on `COC(=O)C=Cc1cn(C)nc1[N+](=O)[O-]` yielded a melting point of 110 to 112 °C. With `CCOC(=O)C(C#N)=NOS(C)(=O)=O` the melting point was 79 to 83 °C. `Cc1ccc(NC(=O)c2ccc(C(=O)Nc3ccccc3N)s2)cc1Nc1nc(-c2cccnc2)cs1` gave a melting point of 242 °C. `Nc1ccc2ccc(-c3cccc(F)c3)nc2n1` gave a melting point of 160 °C. Compound `CS(=O)(=O)Cc1ccc2oc([N+](=O)[O-])c(-c3ccccc3)c2c1` has a melting point of 178 to 181 °C. `CCC(CC)Nc1nc(C)nc(Oc2c(C)cc(C)cc2C)c1N` gave a melting point of 248 to 250 °C. With `CS(=O)(=O)c1ccc(-c2cnn(CC(=O)c3ccc(C#N)cc3)c(=O)c2-c2ccc(F)cc2)cc1` the melting point was 188 to 189 °C. `N#Cc1ccc(Sc2cccc3cnccc23)c(Cl)c1` showed a melting point of 126 to 128 °C. `CC(Oc1ccc(Oc2ncc(C(F)(F)F)cc2Cl)cc1)C(=O)Nc1ccc(C(F)(F)F)cc1` (centres undefined) gave a melting point of 140 to 143 °C. Work on `O=C(CC1CCCCCC1=O)c1ccc(Br)cc1` (centres undefined) yielded a melting point of 124 to 127 °C.

Source: a melting point compilation (Tetko et al.; mined from patent text by program, amines drawn as free bases though some values may be those of a salt)
